# According to article PMC5814837 (Pest Management Science, 2017):
# Several values for one entry are separate records, joined by “and”; a condition that tells them apart may be missing. Equal entries are not always repeated. Where two headings read alike, the source gives them in different places.
# Key:
# [1] = biological target: mitochondrial succinate dehydrogenase (SDH) (Zymoseptoria tritici, UniProt F9X9V6+F9XH52+O42772); assay: biochemical; conditions: IC50
# [2] = biological target: mitochondrial succinate dehydrogenase (SDH); assay: biochemical; set-up: species or system Zymoseptoria tritici
# Zymoseptoria tritici [3] = conditions: in vivo
# Zymoseptoria tritici [4] = assay: microbe, parasite or virus in culture; format: cell-based
# [5] = Zymoseptoria tritici, read-out: EC50 Median
# [6] = Zymoseptoria tritici, read-out: EC50 Range
# Chain of mitochondrial succinate dehydrogenase (SDH) (Zymoseptoria tritici, UniProt F9X9V6+F9XH52+O42772) (O42772 19-297): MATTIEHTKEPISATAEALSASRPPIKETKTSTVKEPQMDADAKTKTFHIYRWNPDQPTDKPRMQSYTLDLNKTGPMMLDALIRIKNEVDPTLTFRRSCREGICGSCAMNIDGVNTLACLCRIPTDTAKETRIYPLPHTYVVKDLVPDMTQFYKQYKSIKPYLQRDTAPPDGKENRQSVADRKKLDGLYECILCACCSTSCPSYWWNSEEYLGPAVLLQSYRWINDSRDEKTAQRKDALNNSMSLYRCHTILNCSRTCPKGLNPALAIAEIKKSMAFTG
# Chain of mitochondrial succinate dehydrogenase (SDH) (Zymoseptoria tritici, UniProt F9X9V6+F9XH52+O42772) (F9XH52 44-187): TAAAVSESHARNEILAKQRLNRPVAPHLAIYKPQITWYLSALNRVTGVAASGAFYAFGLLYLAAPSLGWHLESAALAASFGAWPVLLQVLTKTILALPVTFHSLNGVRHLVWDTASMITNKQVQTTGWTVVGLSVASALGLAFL
# Chain of mitochondrial succinate dehydrogenase (SDH) (Zymoseptoria tritici, UniProt F9X9V6+F9XH52+O42772) (F9X9V6 1-193): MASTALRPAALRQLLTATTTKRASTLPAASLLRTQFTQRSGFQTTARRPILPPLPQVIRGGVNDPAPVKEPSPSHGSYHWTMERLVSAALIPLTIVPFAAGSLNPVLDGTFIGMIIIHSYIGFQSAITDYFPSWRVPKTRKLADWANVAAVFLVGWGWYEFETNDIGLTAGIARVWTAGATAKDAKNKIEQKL
# Chain of mitochondrial succinate dehydrogenase (SDH) (Zymoseptoria tritici, UniProt F9X9V6+F9XH52+O42772) (F9WWR1 29-643 partner): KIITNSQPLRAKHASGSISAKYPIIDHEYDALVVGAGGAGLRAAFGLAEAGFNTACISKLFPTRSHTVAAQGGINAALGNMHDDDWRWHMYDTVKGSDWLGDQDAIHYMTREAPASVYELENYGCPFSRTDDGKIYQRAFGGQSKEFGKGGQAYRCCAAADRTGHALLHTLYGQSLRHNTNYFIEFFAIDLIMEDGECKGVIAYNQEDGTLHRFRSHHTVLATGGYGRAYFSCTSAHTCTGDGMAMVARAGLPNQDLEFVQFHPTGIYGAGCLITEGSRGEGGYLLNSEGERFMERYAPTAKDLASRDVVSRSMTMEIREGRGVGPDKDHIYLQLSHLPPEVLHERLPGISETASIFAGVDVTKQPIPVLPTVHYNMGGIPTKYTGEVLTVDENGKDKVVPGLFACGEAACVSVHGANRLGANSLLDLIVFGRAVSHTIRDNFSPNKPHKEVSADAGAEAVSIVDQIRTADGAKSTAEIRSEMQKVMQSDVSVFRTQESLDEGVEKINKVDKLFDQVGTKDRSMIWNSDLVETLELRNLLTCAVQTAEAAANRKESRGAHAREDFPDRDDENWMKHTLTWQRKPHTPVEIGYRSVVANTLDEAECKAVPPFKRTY
SMILES,EC50 (Zymoseptoria tritici [4]) [µg/mL],EC50 Median (Zymoseptoria tritici [4]) [µg/mL],EC50 (Zymoseptoria tritici [4]; Zymoseptoria tritici) [µg/mL],EC50 (Zymoseptoria tritici [4]; [5]) [µg/mL],also measured
"Cn1cc(C(=O)Nc2ccc(F)cc2-c2ccc(Cl)c(Cl)c2)c(C(F)F)n1 [Bixafen, bixafen]",0.03,0.096,0.03,0.063,IC50 [1]: 33 nM and 38 nM; IC50 [2]: 31 nM and 49 nM; Control efficacy (Zymoseptoria tritici [3]): 0%; application rate at which strain was well controlled (Zymoseptoria tritici [3]): 3 mg/L; application rate at which strains were well controlled (Zymoseptoria tritici [3]): 10 mg/L; EC50 (Zymoseptoria tritici [4]; [6]): 0.017 to 0.406 µg/mL
"N#Cc1c(Cl)c(Cl)c(Cl)c(C#N)c1Cl [Chlorothalonil, chlorothalonil]",,,0.13,,Resistance factor (RF) (Zymoseptoria tritici [4]): 0.8 and 1.2 and 1.3 and 1.4 and 0.7; sensitivity of strains (in words) (Zymoseptoria tritici [4]): sensitive
"Cc1cccc(N(C)C(=S)Oc2ccc3ccccc3c2)c1 [Tolnaftate, tolnaftate]",,,0.17,,growth in the presence of tolnaftate (Zymoseptoria tritici [4]): none of these strains was able to grow
"O=C(Nc1ccccc1-c1ccc(Cl)cc1)c1cccnc1Cl [Boscalid, boscalid]",,,0.16,,
"CC(C)CC(C)c1sccc1NC(=O)c1cn(C)nc1C(F)(F)F (stereo not drawn) [Penthiopyrad, penthiopyrad]",,,0.05,,
"Cc1cc(OC(C)C)ccc1C(=O)C(C)(C)NC(=O)c1sccc1C [Isofetamid, N‐[1,1‐dimethyl‐2‐(4‐isopropoxy‐o‐tolyl)‐2‐oxoethyl]‐3‐methylthiophene‐2‐carboxamide]",0.06,0.096,,0.09,"in planta control (in words) (Zymoseptoria tritici [3]): not controlled; EC50 (Zymoseptoria tritici [4]; Zymoseptoria tritici, read-out: high EC50 values (upper end of the sensitivity range)): > 50 µg/mL"
Cn1cc(C(=O)Nc2ccccc2-c2cc(F)c(F)c(F)c2)c(C(F)F)n1 [Fluxapyroxad],0.04,,0.04,,RF in comparison with reference strain IPO323 (Zymoseptoria tritici [4]): < 10
"O=C(NCCc1ncc(C(F)(F)F)cc1Cl)c1ccccc1C(F)(F)F [Fluopyram, fluopyram]",0.20,0.215,0.2,0.19,application rate providing control (Zymoseptoria tritici [3]): ≥ 30 mg/L; in planta control (in words) (Zymoseptoria tritici [3]): not controlled; EC50 (Zymoseptoria tritici [4]; [6]): 0.08 to 7.78 µg/mL
"[Cl][Sn]([c]1ccccc1)([c]1ccccc1)[c]1ccccc1 [Fentin Cl, fentin chloride]",0.07,,,,
